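48-hour exposure; five concentrations; linearly interpolated endpoints. Here, GI50 denotes the concentration required for 50% inhibition of growth.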 Calls of active or inactive are those of the source. No stated cut-off is given here; in the data, active = GI50 up to about 1.1 µM and inactive = higher.
Columns and labels:
Experiment in all cases: NCI-60 cell line screen, 48 h
[1] = test system: EKVX
[2] = test system: HCC 2998
[3] = test system: SR
[4] = test system: HT-29
[5] = test system: U-251
[6] = test system: MCF7
[7] = test system: SK-MEL-2
[8] = test system: SNB-75
[9] = test system: A549
[10] = test system: OVCAR-3
[11] = test system: HL-60
[12] = test system: HOP-92
[13] = test system: NCI-H226
[14] = test system: UACC-257
[15] = test system: BT-549
[16] = test system: CAKI-1
[17] = test system: MDA-MB-231
[18] = test system: DU-145
[19] = test system: SK-OV-3
[20] = test system: SK-MEL-5
[21] = test system: K562
[22] = test system: SK-MEL-28
[23] = test system: SF-539
[24] = test system: SF-268
[25] = test system: NCI-H23
[26] = test system: OVCAR-4
[27] = test system: IGROV-1
[28] = test system: NCI-H522
[29] = test system: 786-0
[30] = test system: PC-3
[31] = test system: OVCAR-5
[32] = test system: HCT-116
[33] = test system: OVCAR-8
[34] = test system: T47D
[35] = test system: A498
[36] = test system: RXF 393
[37] = test system: MDA-N
[38] = test system: RPMI-8226
[39] = test system: COLO 205
[40] = test system: CCRF-CEM
[41] = test system: Hs-578T
[42] = test system: TK-10
[43] = test system: NCI-H460
[44] = test system: ACHN
[45] = test system: SW-620
[46] = test system: LOX IMVI
[47] = test system: SNB-19
[48] = test system: SN12C
[49] = test system: HOP-62
[50] = test system: MOLT-4
[51] = test system: MDA-MB-435
[52] = test system: Malme-3M
[53] = test system: SF-295
[54] = test system: HCT-15
[55] = test system: KM12
[56] = test system: M14
[57] = test system: UACC-62
[58] = test system: NCI/ADR-RES
[59] = test system: UO-31

CN(C)c1ccc(/C=C2\N=C(c3ccc([N+](=O)[O-])cc3)OC2=O)cc1
GI50 [1]: > 100 µM (inactive)
GI50 [2]: 27.4 µM (inactive)
GI50 [3]: 38.4 µM (inactive)
GI50 [4]: 72.6 µM (inactive)
GI50 [5]: 53.2 µM (inactive)
GI50 [6]: 49.9 µM (inactive)
GI50 [7]: > 100 µM (inactive)
GI50 [8]: > 100 µM (inactive)
GI50 [9]: 91 µM (inactive)
GI50 [10]: 44.9 µM (inactive)
GI50 [11]: 41 µM (inactive)
GI50 [12]: 27.1 µM (inactive)
GI50 [13]: > 100 µM (inactive)
GI50 [14]: 57.3 µM (inactive)
GI50 [15]: 71.6 µM (inactive)
GI50 [16]: > 100 µM (inactive)
GI50 [17]: 64.6 µM (inactive)
GI50 [18]: > 100 µM (inactive)
GI50 [19]: > 100 µM (inactive)
GI50 [20]: > 100 µM (inactive)
GI50 [21]: 36.1 µM (inactive)
GI50 [22]: > 100 µM (inactive)
GI50 [23]: 74.5 µM (inactive)
GI50 [24]: 71.6 µM (inactive)
GI50 [25]: 45.1 µM (inactive)
GI50 [26]: > 100 µM (inactive)
GI50 [27]: > 100 µM (inactive)
GI50 [28]: 33.3 µM (inactive)
GI50 [29]: 90.8 µM (inactive)
GI50 [30]: 56.2 µM (inactive)
GI50 [31]: > 100 µM (inactive)
GI50 [32]: 34.8 µM (inactive)
GI50 [33]: 74.8 µM (inactive)
GI50 [34]: 48.4 µM (inactive)
GI50 [35]: > 100 µM (inactive)
GI50 [36]: 21.5 µM (inactive)
GI50 [37]: 78.9 µM (inactive)
GI50 [38]: 41.7 µM (inactive)
GI50 [39]: 99.1 µM (inactive)
GI50 [40]: 43.7 µM (inactive)
GI50 [41]: 40.5 µM (inactive)
GI50 [42]: > 100 µM (inactive)
GI50 [43]: 71 µM (inactive)
GI50 [44]: 47.6 µM (inactive)
GI50 [45]: 67.6 µM (inactive)
GI50 [46]: 23.1 µM (inactive)
GI50 [47]: 99.8 µM (inactive)
GI50 [48]: > 100 µM (inactive)
GI50 [49]: > 100 µM (inactive)
GI50 [50]: > 100 µM (inactive)
GI50 [51]: 81.8 µM (inactive)
GI50 [52]: 49.2 µM (inactive)
GI50 [53]: > 100 µM (inactive)
GI50 [54]: 20 µM
GI50 [55]: 67.5 µM (inactive)
GI50 [56]: > 100 µM (inactive)
GI50 [57]: 65.9 µM (inactive)

Cc1ccc(S(=O)(=O)NC(=O)NCC(=O)O)cc1
GI50 [4]: > 100 µM (inactive)
GI50 [5]: > 100 µM (inactive)
GI50 [6]: > 100 µM (inactive)
GI50 [7]: > 100 µM (inactive)
GI50 [8]: > 100 µM (inactive)
GI50 [9]: > 100 µM (inactive)
GI50 [11]: > 100 µM (inactive)
GI50 [12]: > 100 µM (inactive)
GI50 [14]: > 100 µM (inactive)
GI50 [15]: > 100 µM (inactive)
GI50 [17]: > 100 µM (inactive)
GI50 [18]: > 100 µM (inactive)
GI50 [19]: > 100 µM (inactive)
GI50 [20]: > 100 µM (inactive)
GI50 [21]: > 100 µM (inactive)
GI50 [22]: > 100 µM (inactive)
GI50 [23]: > 100 µM (inactive)
GI50 [24]: > 100 µM (inactive)
GI50 [25]: > 100 µM (inactive)
GI50 [26]: > 100 µM (inactive)
GI50 [27]: > 100 µM (inactive)
GI50 [28]: > 100 µM (inactive)
GI50 [29]: > 100 µM (inactive)
GI50 [30]: > 100 µM (inactive)
GI50 [31]: > 100 µM (inactive)
GI50 [32]: > 100 µM (inactive)
GI50 [58]: > 100 µM (inactive)
GI50 [33]: > 100 µM (inactive)
GI50 [34]: > 100 µM (inactive)
GI50 [36]: > 100 µM (inactive)
GI50 [37]: > 100 µM (inactive)
GI50 [38]: > 100 µM (inactive)
GI50 [39]: > 100 µM (inactive)
GI50 [59]: > 100 µM (inactive)
GI50 [40]: > 100 µM (inactive)
GI50 [41]: > 100 µM (inactive)
GI50 [42]: > 100 µM (inactive)
GI50 [43]: > 100 µM (inactive)
GI50 [44]: > 100 µM (inactive)
GI50 [45]: > 100 µM (inactive)
GI50 [46]: > 100 µM (inactive)
GI50 [47]: > 100 µM (inactive)
GI50 [48]: > 100 µM (inactive)
GI50 [49]: > 100 µM (inactive)
GI50 [50]: > 100 µM (inactive)
GI50 [52]: > 100 µM (inactive)
GI50 [53]: > 100 µM (inactive)
GI50 [54]: > 100 µM
GI50 [55]: > 100 µM (inactive)
GI50 [56]: > 100 µM (inactive)
GI50 [57]: > 100 µM (inactive)

CC1=C(C(=S)Nc2ccc(Cl)c(C(=O)OC(C)C)c2)SCCO1
GI50 [1]: 19.1 µM (inactive)
GI50 [2]: 14.7 µM (inactive)
GI50 [4]: 18.6 µM (inactive)
GI50 [5]: 17.6 µM (inactive)
GI50 [6]: 32.1 µM (inactive)
GI50 [7]: 21.5 µM (inactive)
GI50 [8]: 20.1 µM (inactive)
GI50 [9]: 31 µM (inactive)
GI50 [10]: 22.8 µM (inactive)
GI50 [11]: 17.5 µM (inactive)
GI50 [12]: 18.7 µM (inactive)
GI50 [13]: 22.2 µM (inactive)
GI50 [14]: 18.5 µM (inactive)
GI50 [15]: 17.7 µM (inactive)
GI50 [16]: 24.2 µM (inactive)
GI50 [17]: 18.2 µM (inactive)
GI50 [18]: 20.3 µM (inactive)
GI50 [19]: 20.4 µM (inactive)
GI50 [20]: 16.9 µM (inactive)
GI50 [21]: 17.1 µM (inactive)
GI50 [22]: 17.9 µM (inactive)
GI50 [23]: 18.7 µM (inactive)
GI50 [24]: 25.1 µM (inactive)
GI50 [25]: 20.6 µM (inactive)
GI50 [26]: 12.3 µM (inactive)
GI50 [27]: 16.6 µM (inactive)
GI50 [28]: 21.4 µM (inactive)
GI50 [29]: 16 µM (inactive)
GI50 [30]: 16.9 µM (inactive)
GI50 [31]: 34.6 µM (inactive)
GI50 [32]: 15.3 µM (inactive)
GI50 [58]: 18.8 µM (inactive)
GI50 [33]: 20 µM (inactive)
GI50 [34]: 19.6 µM (inactive)
GI50 [35]: 16.1 µM (inactive)
GI50 [37]: 18.6 µM (inactive)
GI50 [38]: 21.9 µM (inactive)
GI50 [39]: 20 µM (inactive)
GI50 [59]: 14.9 µM (inactive)
GI50 [40]: 18.2 µM (inactive)
GI50 [41]: 29.3 µM (inactive)
GI50 [42]: 22.2 µM (inactive)
GI50 [43]: 21.8 µM (inactive)
GI50 [44]: 25.8 µM (inactive)
GI50 [45]: 20.2 µM (inactive)
GI50 [46]: 15.5 µM (inactive)
GI50 [47]: 16.7 µM (inactive)
GI50 [48]: 16.7 µM (inactive)
GI50 [50]: 15.7 µM (inactive)
GI50 [51]: 19.3 µM (inactive)
GI50 [52]: 20.3 µM (inactive)
GI50 [53]: 15.7 µM (inactive)
GI50 [54]: 17.1 µM
GI50 [55]: 19.4 µM (inactive)
GI50 [56]: 18.8 µM (inactive)
GI50 [57]: 15.5 µM (inactive)

From ChEMBL document CHEMBL1201862, “PubChem BioAssay data set” (2004)
